Assay results from PubChem BioAssay (NCI).
“And” between values parts separate entries of the source, which are not always exact repeats. Identical values can stand only once.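 These data come from cells grown in 96-well plates and exposed to compound for 48 hours at five concentrations. GI50 is the concentration that inhibits growth by half. TGI: concentration producing complete growth inhibition.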

Assays:
Test in all cases: NCI tumour cell line growth inhibition, 48 h
OVCAR-3 ovarian = system: OVCAR-3 ovarian
A498 renal = system: A498 renal
SR leukemia = system: SR leukemia
HCT-116 colon = system: HCT-116 colon
SNB-19 CNS = system: SNB-19 CNS
NCI-H460 lung = system: NCI-H460 lung
RPMI-8226 leukemia = system: RPMI-8226 leukemia
OVCAR-5 ovarian = system: OVCAR-5 ovarian
NCI-H522 lung = system: NCI-H522 lung
SNB-75 CNS = system: SNB-75 CNS

Compound | GI50 (OVCAR-3 ovarian) [µM] | TGI (OVCAR-3 ovarian) [µM] | GI50 (A498 renal) | TGI (A498 renal) | GI50 (SR leukemia) | TGI (SR leukemia) [µM] | GI50 (HCT-116 colon) [µM] | TGI (HCT-116 colon) [µM] | GI50 (SNB-19 CNS) [µM] | TGI (SNB-19 CNS) [µM] | GI50 (NCI-H460 lung) [µM] | TGI (NCI-H460 lung) [µM] | GI50 (RPMI-8226 leukemia) [µM] | TGI (RPMI-8226 leukemia) [µM] | GI50 (OVCAR-5 ovarian) [µM] | TGI (OVCAR-5 ovarian) [µM] | GI50 (NCI-H522 lung) | TGI (NCI-H522 lung) [µM] | GI50 (SNB-75 CNS) [µM] | TGI (SNB-75 CNS) [µM]
O=c1c(O)cccc2cc(O)c(O)c(O)c12 | 6.57 | 32.3 | 4.16 µM | > 100 µM | 3.76 µM | > 100 | 7.67 | > 100 | 8.44 | > 100 | 6.86 | > 100 | 6.77 | > 100 | 41.8 | > 100 | 3.63 µM | 14.5 |  | 
N#CC(C#N)N=Nc1ccc(Br)cc1 | 2.5 | 15.4 | 13.3 µM | 46.1 µM | 3.22 µM | > 49.8 | 2.44 | 9.44 | 27.5 | > 100 | 11.5 | > 100 | 1.52 | 8.03 | 4.8 | > 72.6 | 0.543 µM | 3.41 | 13.7 | > 100
O=C(Nc1ccccc1O)c1ccc(CNc2ccnc(C(F)(F)F)c2)cc1 | 4.88 | 21.9 | 2.84 µM | 12.2 µM | 2 µM | > 100 | 3.96 | 34.9 | 10.4 | 33.9 | 3.78 | 83.4 | 0.5 | 5.09 | 16.5 | > 100 |  |  | 7.26 | 48.4
Cc1[nH]c2ccccc2c1-c1cc(-c2cc(-c3c(C)[nH]c4ccccc34)nc(N)n2)nc(N)n1 |  | > 100 |  | > 100 µM |  | > 100 |  | > 100 |  | > 100 |  | > 100 |  | > 100 |  | > 100 |  | > 100 |  | 
O=[N+]([O-])/C=C/c1cc2ccccc2[nH]1 |  | 28.2 |  | 34.4 µM |  | 26.8 |  | 15.7 |  | 34.7 |  | 30.4 |  | 9.85 |  | 37.1 |  | 24.2 |  | 28.6
CN(C)CCNC(=O)c1cccc2c(Nc3ccc(S(N)(=O)=O)cc3)c3ccccc3nc12 |  | 5.85 |  | 7.08 µM |  | > 100 |  | 1.74 |  | 10.7 |  | 1.96 |  | 77.2 |  | 6.56 |  | 2.8 |  | 4.48
COc1cc(Nc2ncc(F)c(Nc3ccc4c(n3)NC(=O)C(C)(C)O4)n2)cc(OC)c1OC | > 100 | > 100 | 0.148 µM and 0.352 µM | 0.547 µM and 2.15 µM | 2.71 µM and > 10 µM | > 100 | > 100 | > 100 | > 100 | > 100 | > 100 | > 100 | > 100 | > 100 | 3.85 | > 10 | 1.94 µM and 1.43 µM | > 100 | 0.385 | > 10
COc1ccc(Cc2cc3c(cc2OCC(=O)O)OCO3)cc1 |  | > 100 |  | > 100 µM |  | > 100 |  | > 100 |  | > 100 |  | > 100 |  | > 100 |  | > 100 |  | > 100 |  | 
CCCCCCCCCc1cc[n+](CC(=O)c2ccc([N+](=O)[O-])cc2)cc1 | 1.04 | 2.28 | 1.26 µM | 3.14 µM | 0.612 µM | 4.48 | 0.373 | 1.43 | 0.478 | 1.8 | 1.53 | 3.08 | 0.439 | 2.15 | 1.16 | 2.52 | 1.36 µM | 2.87 | 1.12 | 2.36
CC(C)CC(=O)Nc1n[nH]c2c1CN(C(=O)C1CCN(C)CC1)C2(C)C | 0.435 | 5.25 | 2.34 µM | > 10 µM | 0.135 µM | 2.59 | 0.362 | > 10 | 1.05 | > 10 | 0.309 | > 10 | 0.506 | 5.97 | 1.9 | > 10 | 0.467 µM | 3.99 | 1.02 | 4.14
COc1cc2c(cc1OC)C(OC)N(C)c1c-2ccc2cc3c(cc12)OCO3 (stereo not given) |  | 5.68 |  | 1.83 µM |  | > 75 |  | 7.63 |  | > 75 |  | 3.58 |  | 13.4 |  | 11.8 |  | 0.766 |  | 5.53
O=C1c2ccccc2NC1(c1ccccc1)c1c(-c2ccccc2)[nH]c2ccccc12 (stereo not given) |  | > 100 |  | > 100 µM |  | > 100 |  | > 100 |  | > 100 |  | > 100 |  | > 100 |  |  |  |  |  | > 100
Nc1ccccc1NC(=O)c1ccc(CCCC(=O)Nc2ccc(C3CC3N)cc2)cc1 (stereo not given) | 1.91 | 11.3 | 0.747 µM | 2.74 µM | 0.738 µM | > 100 | 0.375 | 16 | 3.81 | > 100 | 2.63 | > 100 | 2.79 | 24.2 | 0.925 | 37.6 | 0.673 µM | 5.12 | 1.89 | 50.4
COC1=CC(=O)C(OC)=C(OC)C1=O | 17.2 | 31.1 | > 100 µM | > 100 µM | 2.71 µM | 9.04 | 16 | 29.6 | 21.5 | 52.8 | 77 | > 100 | 14.7 | 42.9 | 17.3 | 33 | 3.21 µM | 17.4 | 12.1 | 25.6
CC#C/C(=N\OC[C@H]1COCCN1)c1ccc2ncnc(Nc3ccc(OCc4cccc(F)c4)c(Cl)c3)c2c1 | 1.43 | 2.94 | 2.07 µM | 7.7 µM | 1.68 µM | 5.34 | 1.69 | 3.42 | 1.3 | 2.69 |  |  | 1.66 | 3.81 | 1.65 | 4.27 | 0.393 µM | 2.25 | 1.46 | 2.82
